Experimental data taken from patent US20060057071A1, “Paramagnetic complexes with pendant crown compounds showing improved targeting-specificity as MRI contrast agents” (priority 2004, published 2006).
Values joined by “and” are separate entries in the source; they are usually repeats but may differ in a detail not shown here. Equal values may be shown once.

Assays:
[1] = 298 K; cited from earlier work
kidney cortex = assay: In vivo MRI, renal intensity enhancement; parameters: species or system rat; conditions: for maximal renal intensity enhancement (IE): 0.1 mmol/kg (standard dosage), first few minutes after administration; for time after administration at which almost all renal IE was diminished: kidney cortex
Protocol: (§1) To study the MRI contrast and biodistribution behavior of gadolinium complexes […] pendant crown ethers, experiments were performed using male Sprague-Dawley (SD) rats that weighted 150-180 g, and were housed at the Wuhan Institute of Physical and Mathematics of the Chinese Academy of Sciences (Wuhan, Hubei Province, China). All procedures conformed to the institutional guidelines for animal welfare. The rat was injected via the femoral vein with 1 mL saline solution of GdL1 in concentrations of 0.1, 0.033, and 0.02 mM/kg, which are the standard dosage, one third and one fifth of the standard dosage used in clinic currently. MR imaging was performed on a 4.7 T Bruker BIO-SPEC-47/30 MRI scanner with a custom spiral surface coil. The animal was scanned in the prone position in the MRI experiment. […] The total duration of the dynamic scanning lasted up to 400 min after the administration, with an image every 4 min. A water tube was placed in the field of view as a phantom reference. The intensity enhancement (IE) of the region of interest (RI) at time point t is expressed by IE=100% (RI(t)-RI(0))/RI(0) where RI(t) corresponds to the normalized signal intensity as measured at time point, t and RI(0) is the normalized signal intensity precontrast.

[2] = Variable-temperature 17O NMR transverse relaxation rate; format: physicochemical; conditions: for water exchange rate kex^298 / TM: 25° C.; for TM: pH 6.9, derived from VT 17O NMR spectroscopy; for exchange lifetime TM of inner-sphere coordinated water: 298 K (25° C.)
Source text: (§2) Measuring the relaxation rates of an abundant nuclear species as a function of the magnetic field over a wide range is called relaxometry. A relaxometry profile is a plot of the nuclear magnetic relaxation rate, usually 1/T1, as a function of the Larmor frequency or the magnetic field. This profile is also called a Nuclear Magnetic Resonance Dispersion (NMRD) profile. Compared with the NMRD profile, the prominent advantage of the ^17O NMR technique is that it allows the accurate determination of the water exchange rate 1/TM. This is a consequence of the oxygen nucleus being closer to the paramagnetic centre when bound in the inner-sphere, wherein the outer-sphere contributions to the relaxation rates are negligibly small. With the help of NMRD profiles, ^17O NMR measurements, and the Soloman-Bloemnergen-Morgan theory, several important parameters, such as TM, TR, TV, Δ^2 and rH, can be measured.
The variable-temperature ^17O NMR measurements were recorded on a JEOL EX-90 (2.1 T) spectrometer that was equipped with a 5 mm probe, by using a D2O external lock. The experimental settings were: spectral width of 10000 Hz, pulse width of 7 μs, acquisition time of 10 ms, 1000 scans, and no sample spinning. Solutions containing 2.6% of ^17O isotope were used. The observed transverse relaxation rates (R2obs^O) were calculated from the signal width at half height.

MIHA cells [3] = assay: AO/EB staining, laser scanning confocal microscopy; format: cell-based; conditions: 10 μM, 1 h, 2 h, 8 h, 24 h incubation, 37° C.
Protocol: MIHA cells in the absence (control) and presence of Gd-DOTA (10 μM), Gd-DO3A (10 μM), and GdL1 (10 μM) incubated at 37° C. and 5% CO2, 95% air in a humidified incubator for 1 h, 2 h, 8 h, and 24 h, respectively.
Based on cell morphology and cell membrane integrity, normal, necrotic, and apoptotic cells can be distinguished using laser confocal microscopy. FIG. 22 gives the cell morphology in the absence and presence of Gd-DOTA (10 μM), Gd-DO3A (10 μM), and GdL1 (10 μM) at various time intervals after the incubation. In the absence or presence of the Gd^3+ complexes, the nuclei of the living cells were stained as bright blue spots in the nucleus.

[4] = 1H NMRD profiles (water proton relaxivity); format: physicochemical; conditions: 20 MHz, 25° C., pH 6.9
[5] = 1H NMRD profiles (water proton relaxivity); format: physicochemical; conditions: 25° C., pH 6.9, fits of NMRD profile and 17O NMR
Source text: as §2
Water proton nuclear magnetic resonance dispersion NMRD profile is used to record the longitudinal water proton relaxation rates as a function of magnetic fields. The method is, in principle, sensitive to all of the parameters that influence relaxivity. The ^1H NMRD profiles were measured over a continuum of magnetic field strength from 0.00024 to 0.24 T (corresponding to 0.01-10 MHz proton Larmor frequency, 1 T≈41.7 MHz) on a Spinmaster FFC (Stelar, Mede (PV)), which is a fast field-cycling NMR relaxometer installed at the LIMA Laboratory (Bioindustry Park, Ivrea (TO), Italy). The relaxometer worked under complete control with an absolute uncertainty in 1/T1 of ±2%. The NMRD profiles were measured using 1-2 mM solutions of the complexes.

liver parenchyma = assay: In vivo MRI, hepatic intensity enhancement; parameters: species or system rat; conditions: for maximal hepatic IE: rat
Protocol: as §1

[6] = cited from earlier work
MIHA cells [7] = assay: In vitro cytotoxicity, MTT / XTT cell proliferation assay; format: cell-based
Protocol: To further investigate the potential ability of GdL1 as an NMRI contrast agent, its cytotoxicity was measured by MTT assay. The toxicity of GdL1 was determined from the dose-dependence of surviving cells after exposure to this Gd^3+ complex at different time intervals. For comparison, the cytotoxicities of Gd-DOTA and Gd-DO3A were measured under the same conditions.
To evaluate the toxicity of prepared Gd^3+ complexes, a calorimetric assay (XTT-based) for the non-radioactive quantification of cell proliferation was applied. In the cell proliferating process, the added tetrazolium salt XTT was cleaved to a formazan dye by metabolically active cells, and the quantification of cell growth was achieved by the variation of the absorbance at 492 nm. […] Different concentrations of drugs were adjusted by performing serial dilution. The incubation period of the cell culture ranged from 1, 2, 8, and 24 hrs. XTT dye at a concentration of 5 mg/mL (sigma, St. Louis, Mo.) was added, and the plates were incubated for 12 h in a moist chamber at 37° C. The optical density was determined by eluting the dye with dimethyl sulfoxide, and the absorbance was measured at 570 nm. At least three independent experiments were performed.

| SMILES | thermodynamic stability log K [1] | maximal renal intensity enhancement (IE) (kidney cortex; rat) | time after administration at which almost all renal IE was diminished (kidney cortex; 0.1 mmol/kg) [min] | water exchange rate kex^298 [2] [s⁻¹] | TM [2] [ns] | exchange lifetime TM of inner-sphere coordinated water ([2]; 2.12 T) [ns] | cell morphology (apoptotic or necrotic cells) (MIHA cells [3]) | proton relaxivity r1 (r1p) [4] [mM⁻¹ s⁻¹] | D [5] [cm^2s^−1] | TR [5] [ps] | TV [5] [ps] | a [5] [Å] | q [5] | r [5] [Å] | Δ^2 [5] [s⁻¹] | time after administration of maximal hepatic IE (liver parenchyma; 0.1 mmol/kg) [min] | maximal hepatic IE (liver parenchyma; 0.1 mmol/kg (standard dosage)) [%] | time after administration of maximal hepatic IE (liver parenchyma; 0.033 (0.03) mmol/kg) [min] | maximal hepatic IE (liver parenchyma; 0.033 (0.03) mmol/kg) [%] | other results |
| --- | --- | --- | --- | --- | --- | --- | --- | --- | --- | --- | --- | --- | --- | --- | --- | --- | --- | --- | --- | --- |
| O=C([O-])CN1CCNCCN(CC(=O)[O-])CCN(CC(=O)[O-])CC1.[Gd+3] [Gd-DO3A, reference compound] | 22.0 | 140% | 120 | 6.3e+06 | 160 | 160 | no obvious apoptotic or necrotic cells were found | 5.72 | 2.24E-5 | 66 | 14 | 3.9 | 2 | 3.15 | 4.6e+19 | – | – | – | – | – |
| O=C([O-])CN1CCN(CC(=O)[O-])CCN(CC(=O)O)CCN(CC(=O)[O-])CC1.[Gd+3] [Gd-DOTA, reference compound] | 24.6 | 110% and 123% | 70 | 4.1e+06 | 300 | 245 | no obvious apoptotic or necrotic cells were found | 4.74 | 2.24E-5 | 73 | 7.7 | 4.0 | 1 | 3.1 | 1.3e+19 | 30 to 40 | 70 | 30 to 40 | 30 | hepatic IE (liver parenchyma; 0.02 mmol/kg): no remarkable hepatic IE was detected; time after which hepatic IE faded away (liver parenchyma; 0.1 and 0.033 mmol/kg): 100 min; r1p ([6]; 20 MHz, 298 K, typical values): 4.74 mM⁻¹ s⁻¹; relaxivity ([6]; 37° C., 20 MHz): 3.4 mM⁻¹ s⁻¹; bound water molecular resident lifetime TM ([6]; 298 K, typical values): about 244 ns |
| O=C([O-])CN1CCN(CCN2CCOCCOCCOCCOCC2)CCN(CC(=O)[O-])CCN(CC(=O)[O-])CC1.[Gd+3] [GdL1, Gd^3+ Complex of L1] | – | ~200% | – | 1.82e+07 | 55 | 55 | no obvious apoptotic or necrotic cells were found | 9.65 | 2.24E-5 | 146 | 13 | 4.0 | 2 | 2.98 | 8e+19 | 90 to 100 | 105 | 60 to 100 | 90 | time after administration of maximal hepatic IE (liver parenchyma; 0.02 mmol/kg): 60 min; hepatic IE maintained after 3 h (liver parenchyma; 0.02 mmol/kg, 3 h): over 40%; hepatic IE a few minutes after the injection (liver parenchyma; 0.03 mmol/kg): about 50%; hepatic IE persisting after 320 min (liver parenchyma; 0.03 mmol/kg, 320 min): 50%; time for which high hepatic IE stays on a plateau (liver parenchyma; 0.033 mmol/kg): more than 4 h; hepatic IE level on plateau (liver parenchyma; 0.033 mmol/kg, more than 4 h after administration): > 60%; resident lifetime in hepatic tissues (liver parenchyma; 0.1 mmol/kg): > 4 h; time after administration at which obvious enhancement of the liver was monitored (liver parenchyma; 0.1 mmol/kg): 30 min; time for which strong/high hepatic IE was maintained (liver parenchyma; 0.1 mmol/kg): more than 4 h; time for which strong hepatic intensity enhancement is maintained (liver parenchyma; summary statement): more than four hours; viability of the cells (MIHA cells [7]; 1×10^−5 mol L^−1 to 1×10^−2 mol L^−1, 1 h, 2 h, 8 h, 24 h incubation): above 90%; effect on cell viability / cytotoxicity (MIHA cells [7]; up to 1×10^−2 M, up to 24 h incubation): not affected obviously; resident lifetime in renal tissue (kidney cortex; 0.1 mmol/kg): > 3 h; renal IE preserved 250 minutes after injection (kidney cortex; 0.1 mmol/kg, 250 min): 40%; kidney contrast enhancement two hours after the injection (kidney cortex; 0.1 mmol/kg, two hours): faint contrast enhancement could still be observed; maximal renal IE (kidney cortex; 0.033 (0.03) mmol/kg, one third of standard dose, rat): 123% and 120%; time for which strong renal intensity enhancement is maintained (kidney cortex; summary statement): more than four hours; temperature at which R2p attains its maximum ([2]; 2.12 T, range 273-340 K): ~270 K |
